Results reported in patent US11583507B2, “Direct AMPK activator compounds” (SOCIETE DES PRODUITS NESTLE S.A., priority 2018, dated 2023).

What was measured:
[1] = target: T1, AMPK α2β1γ1 R298G (211 R298G) mutant (Homo sapiens, UniProt P54619+P54646+Q9Y478, R299G); assay: AMPK in vitro activity assay (HTRF-KinEASE), γ1 R298G mutant; assay type: biochemical; conditions: mutation in the γ1 AMP binding pocket
T1 construct: His; made in house; host or cells: bacteria
Protocol: (§1) Lusianthridin (CAS 87530-30-1) was isolated from Thunia alba fruit. It was sourced from Analyticon (NP-012362). The plant was purchased through Analyticon's biomaterial supplier in 2003. The country of origin is Nepal. The AMPK heterotrimers were expressed in bacteria and purified through the His-α subunit by nickel purification. AMPK complexes were purified through gel filtration and phosphorylated by incubation with CaMKKβ, and further purified with a final gel filtration purification step. Phosphorylated purified AMPK was incubated with varying concentrations of ligand for 30 mins using substrate and reagents from the HTRF-KinEASE Cisbio assay kit (STK S1 Kit). Phosphorylation of the substrate was measured by incubating with donor and acceptor antibodies for 2 h at room temperature as per the manufacturer's protocol (and Coulerie et al., (2016) PMID: 27792327) and phosphorylated peptide detected by performing HTRF. The 665 nm/620 nm ratio was determined and the results are plotted as fold activation compared to the respective AMPK complex without any compound.

[2] = test system: AMPK substrate, acetyl-CoA carboxylase (ACC); assay: pACC HTRF assay in U2OS Flp-In T-REx cells; assay type: cell-based; conditions: 1 h, varying concentrations, dose-dependent
Protocol: U2OS Flp-In T-REx cells were seeded at 100 K in a 96-well plate and left overnight at 37 C in DMEM GlutaMAX (Thermo Fisher Scientific) supplemented with 10% (vol/vol) FBS and 100 U/ml penicillin G, and 100 μg/ml streptomycin. Cells were treated for 1 h with varying concentrations of Lusianthridin in media lacking FBS and then cells were lysed in 50 μl of Cisbio lysis buffer #1 supplemented with blocking solution as per the manufacturer's protocol (Cisbio). Cells were lysed for 30 mins at room temperature before 16 μl of lysate was incubated with 4 μl of the HTRF antibodies (1:40 dilution of the acceptor and donor (p)ACC antibodies, as per the manufacturers protocol). Lysates were incubated overnight with the antibodies before 665 nm/620 nm ratio was determined using a MolecularDevices i3 plate reader (with a HTRF cartridge add-on). For western blot analysis, SDS-sample buffer was added to the remainder of the lysate, denatured at 95 C and then subjected to western blot analysis with phospho-specific and total ACC antibodies (Cell Signalling). Bands were visualized by incubating with Li-Cor secondary antibody and scanned on a Li-Cor Odyssey machine.

[3] = target: T2, AMPKα2β1γ1 (211) (Homo sapiens, UniProt P54619+P54646+Q9Y478); assay: AMPK in vitro activity assay (HTRF-KinEASE), phosphorylated bacterially-expressed complex; assay type: biochemical; conditions: fold activation vs complex without compound; 30 mins incubation
T2 construct: His; made in house; host or cells: bacteria
T2 sequence (P54646 whole entry): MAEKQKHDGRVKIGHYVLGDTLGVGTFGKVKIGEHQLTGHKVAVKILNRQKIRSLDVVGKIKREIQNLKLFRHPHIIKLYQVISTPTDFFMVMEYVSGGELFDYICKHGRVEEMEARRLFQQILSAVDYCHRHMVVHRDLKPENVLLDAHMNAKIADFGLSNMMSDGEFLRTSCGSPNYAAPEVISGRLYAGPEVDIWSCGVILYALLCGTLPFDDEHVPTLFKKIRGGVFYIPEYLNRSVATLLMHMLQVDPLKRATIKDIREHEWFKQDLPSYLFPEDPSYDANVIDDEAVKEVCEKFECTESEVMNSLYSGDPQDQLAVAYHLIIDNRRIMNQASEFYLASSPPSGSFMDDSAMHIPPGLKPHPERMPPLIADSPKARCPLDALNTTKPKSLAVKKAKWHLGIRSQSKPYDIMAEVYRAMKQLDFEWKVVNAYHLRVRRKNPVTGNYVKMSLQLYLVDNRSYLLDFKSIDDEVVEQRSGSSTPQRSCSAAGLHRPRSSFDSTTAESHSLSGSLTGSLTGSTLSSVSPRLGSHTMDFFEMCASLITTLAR
T2 sequence (Q9Y478 whole entry): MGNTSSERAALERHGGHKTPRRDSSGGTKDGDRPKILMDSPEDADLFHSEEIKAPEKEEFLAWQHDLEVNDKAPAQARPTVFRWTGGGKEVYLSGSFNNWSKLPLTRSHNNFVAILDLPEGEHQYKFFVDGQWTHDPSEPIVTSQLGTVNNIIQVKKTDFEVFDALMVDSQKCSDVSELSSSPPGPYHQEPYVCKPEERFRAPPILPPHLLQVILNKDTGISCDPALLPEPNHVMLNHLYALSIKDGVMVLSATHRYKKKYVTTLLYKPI
T2 sequence (P54619 whole entry): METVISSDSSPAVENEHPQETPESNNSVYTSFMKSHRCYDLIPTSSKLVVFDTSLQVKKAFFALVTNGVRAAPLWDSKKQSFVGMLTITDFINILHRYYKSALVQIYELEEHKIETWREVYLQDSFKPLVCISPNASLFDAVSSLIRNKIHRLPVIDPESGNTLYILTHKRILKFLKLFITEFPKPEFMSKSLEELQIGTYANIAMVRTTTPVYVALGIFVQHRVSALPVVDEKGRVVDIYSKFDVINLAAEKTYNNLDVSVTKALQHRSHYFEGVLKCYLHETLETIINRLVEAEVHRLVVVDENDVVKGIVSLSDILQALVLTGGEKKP
Protocol: as §1

[4] = test system: mouse primary hepatocytes; assay: MTT cytotoxicity assay in mouse primary hepatocytes; conditions: 1 h at 37 C, Lusianthridin up to 100 μM
Protocol: Mouse primary hepatocytes were treated with the indicated concentrations of Lusianthridin, Oligomycin and FCCP for 1 h at 37 C. Cell viability was determined by using an MTT assay as per the manufacturer's protocol.
For cytotoxicity experiments in primary hepatocytes, cells were seeded at 20 K cells per well in a 96-well plate overnight in M199 media. Hepatocytes were incubated with varying concentrations of Lusianthridin, Oligomycin or FCCP for 1 h at 37 C. The media was changed for media without phenol red, before performing an MTT assay as per the manufacturer's instructions (Thermo fisher, V131154).

[5] = target: T3, AMPK α2β2γ1 (221) (Homo sapiens, UniProt O43741+P54619+P54646); assay: AMPK in vitro activity assay (HTRF-KinEASE), β2-containing complex; assay type: biochemical; conditions: fold activation vs complex without compound
T3 construct: His; made in house; host or cells: bacteria
T3 sequence (P54646 whole entry): as the sequence (P54646 whole entry) above
T3 sequence (O43741 whole entry): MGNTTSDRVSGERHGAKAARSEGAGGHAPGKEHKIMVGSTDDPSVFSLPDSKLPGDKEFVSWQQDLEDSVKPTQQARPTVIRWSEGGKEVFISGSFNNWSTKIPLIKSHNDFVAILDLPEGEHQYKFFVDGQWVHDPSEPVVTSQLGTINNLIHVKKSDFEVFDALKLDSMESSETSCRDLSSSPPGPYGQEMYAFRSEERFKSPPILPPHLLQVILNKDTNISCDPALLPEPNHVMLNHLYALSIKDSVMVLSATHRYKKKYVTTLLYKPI
T3 sequence (P54619 whole entry): as the sequence (P54619 whole entry) above
Protocol: as §1

[6] = test system: AMPK α2β1γ1 ΔCBM mutant (211 ΔCBM); assay: AMPK in vitro activity assay (HTRF-KinEASE), ΔCBM mutant; assay type: biochemical; conditions: carbohydrate-binding module deleted
Protocol: as §1

[7] = target: T4, AMPKα1β1γ1 (111) (Homo sapiens, UniProt P54619+Q13131+Q9Y478); assay: AMPK in vitro activity assay (HTRF-KinEASE), α1-containing complex; assay type: biochemical; conditions: fold activation vs complex without compound
T4 construct: His; made in house; host or cells: bacteria
T4 sequence (Q13131 whole entry): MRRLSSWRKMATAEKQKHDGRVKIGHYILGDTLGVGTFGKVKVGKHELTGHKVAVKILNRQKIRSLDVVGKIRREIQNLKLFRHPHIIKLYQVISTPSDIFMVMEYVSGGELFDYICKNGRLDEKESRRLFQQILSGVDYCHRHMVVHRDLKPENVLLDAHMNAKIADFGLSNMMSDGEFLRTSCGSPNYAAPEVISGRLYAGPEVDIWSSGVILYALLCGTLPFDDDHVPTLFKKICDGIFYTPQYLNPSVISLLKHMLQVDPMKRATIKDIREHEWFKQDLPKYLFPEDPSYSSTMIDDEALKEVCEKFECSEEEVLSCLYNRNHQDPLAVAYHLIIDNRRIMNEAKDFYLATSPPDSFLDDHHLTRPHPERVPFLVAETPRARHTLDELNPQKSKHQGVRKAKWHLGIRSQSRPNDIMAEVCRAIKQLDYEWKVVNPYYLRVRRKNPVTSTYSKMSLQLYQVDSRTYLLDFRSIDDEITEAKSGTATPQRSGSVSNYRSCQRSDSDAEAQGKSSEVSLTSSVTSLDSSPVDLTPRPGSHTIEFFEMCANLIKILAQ
T4 sequence (Q9Y478 whole entry): as the sequence (Q9Y478 whole entry) above
T4 sequence (P54619 whole entry): as the sequence (P54619 whole entry) above
Protocol: as §1

[8] = test system: primary hepatocytes; assay: Lipogenesis ([1-14C]-acetate incorporation into fatty acids) in primary hepatocytes; assay type: cell-based, mouse; conditions: 1 h at 37 C, varying concentrations
Protocol: Hepatocyte isolation: The liver was first perfused with 50 ml perfusion buffer (Krebs-Hepes buffer with […] EDTA), followed with 50 ml collagenase A buffer (Krebs-Hepes buffer with 5 mM CaCl2 and 0.5 mg/ml collagenase). […] Hepatocytes were left to attach (3-4 h) and cultured overnight in M199 supplemented with antibiotics and 100 nM dexamethasone. Cells were used for experiments the following morning. For primary hepatocyte isolation see Example 4. For lipogenesis measurements in primary hepatocytes, cells were seeded at 600 K cells per well in a 6-well plate overnight. Media was replaced with fresh M199 media alone for 2 hours prior to incubation with varying concentrations of Lusianthridin for 1 h at 37 C, in the presence of [1-^14C]-acetate. The incorporation of [^14C] into fatty acids was determined in the lower organic layer after separation from the aqueous phase. […] Lipogenesis is controlled by the AMPK substrate ACC, and phosphorylation and inhibition of ACC by AMPK, leads to a decrease in lipogenesis. Lipogenesis was measured in primary hepatocytes by determining the incorporation of ^14C-labelled acetate into fatty acids. Lipogenesis was monitored in the presence or absence of varying concentrations of Lusianthridin for 1 h at 37 C. […] This observation is consistent with its ability to activate AMPK in hepatocytes, which leads to the phosphorylation and inhibition of ACC.

[9] = target: T5, AMPK α2β1γ1 S108A mutant (211 S108A) (Homo sapiens, UniProt P54619+P54646+Q9Y478, S108A); assay: AMPK in vitro activity assay (HTRF-KinEASE), β1 S108A mutant; assay type: biochemical
T5 construct: His; made in house; host or cells: bacteria
T5 sequence (P54646 whole entry): as the sequence (P54646 whole entry) above
T5 sequence (Q9Y478 whole entry S108A): as the sequence (Q9Y478 whole entry) above, with S108A counted along it
T5 sequence (P54619 whole entry): as the sequence (P54619 whole entry) above
Protocol: as §1

[10] = test system: differentiated C2C12 cells; assay: Glucose uptake (3H-2-deoxyglucose) into differentiated C2C12 cells; assay type: cell-based; conditions: Lusianthridin 100 μM for 4 h at 37 C
Protocol: C2C12 cells were maintained in DMEM GlutaMAX supplemented with 10% (vol/vol) FBS and 100 U/ml penicillin G, and 100 μg/ml streptomycin. C2C12 myoblasts were differentiated into myotubes by 7 days of culture in DMEM GlutaMAX supplemented with 2% (vol/vol) horse serum and antibiotics. Cells were transferred to serum-free media for 24 hours, before equilibrating with bicarbonate-free medium prior to treatment. Cells were treated with Control (DMSO 1% final concentration) or 100 μM Lusianthridin in the presence of ^3H-2-deoxyglucose (in Krebs-Hepes buffer containing sodium pyruvate). Cells were lysed and the quantity of ^3H determined in these samples using a scintillation counter.
Activation of AMPK in muscle cells has been previously shown to increase glucose uptake. […] Differentiated C2C12 cells were treated with either control or 100 μM Lusianthridin for 4 h at 37 C. Glucose uptake was determined by monitoring the uptake of ^3H-2-deoxyglucose into cells. […] This is consistent with the important role of AMPK in mediating glucose uptake in muscle.

T1 sequence (P54646 whole entry): as the sequence (P54646 whole entry) above
T1 sequence (Q9Y478 whole entry): as the sequence (Q9Y478 whole entry) above
T1 sequence (P54619 whole entry R299G): as the sequence (P54619 whole entry) above, with R299G counted along it

SMILES: Nc1ncnc2c1ncn2[C@@H]1O[C@H](COP(=O)(O)O)[C@@H](O)[C@H]1O [AMP, reference compound]
- activation of AMPK α2β1γ1 γ1 R298G mutant complexes [1]: impaired

SMILES: COc1cc(O)c2c(c1)CCc1cc(O)c(O)cc1-2 [Compound 2, 7-Methoxy-9,10-dihydrophenanthrene-2,3,5-triol]
- phosphorylation of the AMPK substrate ACC (pACC HTRF) [2]: increase
- activation of bacterially-expressed AMPKα2β1γ1 complexes [3]: activate

SMILES: CC[C@H]1/C=C/C=C/C[C@@H](C)[C@H](O)[C@@](C)(O)C(=O)[C@@H](C)[C@H](O)[C@@H](C)C(=O)[C@@H](C)[C@H](O)[C@@H](C)/C=C/C(=O)O[C@@H]2[C@H](C)[C@H](CC1)O[C@]1(CC[C@H](C)[C@H](C[C@@H](C)O)O1)[C@H]2C [Oligomycin]
- cell viability (MTT, percentage of viable cells) [4]: robust decrease in cell viability

SMILES: Oc1ccc2c(c1)CCc1cccc(O)c1-2 [Compound 3, 9,10-Dihydrophenanthrene-2,5-diol]
- phosphorylation of the AMPK substrate ACC (pACC HTRF) [2]: increase
- activation of bacterially-expressed AMPKα2β1γ1 complexes [3]: activate

SMILES: COc1cc(O)c2c(c1)CCc1ccc(O)cc1-2 [Compound 5, 7-Methoxy-9,10-dihydrophenanthrene-3,5-diol]
- phosphorylation of the AMPK substrate ACC (pACC HTRF) [2]: increase
- activation of bacterially-expressed AMPKα2β1γ1 complexes [3]: activate

SMILES: Oc1ccc2c(c1)CCc1cc(O)cc(O)c1-2 [Compound 4, 9,10-Dihydrophenanthrene-2,4,7-triol]
- activation of β2-containing AMPK complexes (α2β2γ1) [5]: did not activate
- activation of α2β1γ1 ΔCBM mutant [6]: did not activate
- activation of bacterially-expressed AMPKα1β1γ1 complexes [7]: activates
- rate of lipogenesis (DPM per μg of protein) [8]: dose-dependent decrease
- phosphorylation of the AMPK substrate ACC (pACC HTRF) [2]: increase
- activation of AMPK complexes with the β1 S108A mutation [9]: did not activate
- activation of bacterially-expressed AMPKα2β1γ1 complexes [3]: activate
- fold increase in glucose uptake relative to control [10]: ~2 fold

SMILES: N#CC(C#N)=NNc1ccc(OC(F)(F)F)cc1 [FCCP, carbonyl cyanide P-(trifluoromethoxy) phenylhydrazone]
- cell viability (MTT, percentage of viable cells) [4]: robust decrease in cell viability
